# Assay results published in patent US9695155B2, “Herbicidal substituted pyrimidinyloxy benzene compounds” (E. I. DU PONT DE NEMOURS AND COMPANY, priority 2013, dated 2017).
# Tests used:
# [1] = system: lambsquarters; experiment: Test D postemergence; type: in vivo, Chenopodium album; settings: Chenopodium album, post-emergence, scale 0 to 100 (0 no effect, 100 complete control), read-out: Plant response rating, Lambsquarters
# Procedure, shortened: (§1)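 Species were sown in silt loam for preemergence treatment, or grown in peat-based medium to the 1–4-leaf stage (2–18 cm) for postemergence sprays. Test chemicals were formulated in a non-phytotoxic solvent mixture with surfactant. After 7–21 days in a controlled environment, plants were rated visually against controls on a 0 (no effect) to 100 (complete control) scale.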
# [2] = system: canarygrass; experiment: Test D postemergence; type: in vivo, Phalaris minor; settings: Phalaris minor, post-emergence, scale 0 to 100 (0 no effect, 100 complete control), read-out: Plant response rating, Canarygrass
# Procedure, shortened: as §1
# [3] = system: chickweed; experiment: Test D preemergence; type: in vivo, Stellaria media; settings: Stellaria media, pre-emergence, scale 0-100, read-out: Plant response rating, Chickweed
# Procedure, shortened: as §1
# [4] = system: galium; experiment: Test D postemergence; type: in vivo, Galium aparine; settings: Galium, post-emergence, scale 0 to 100 (0 no effect, 100 complete control), read-out: Plant response rating, Galium
# Procedure, shortened: as §1
# [5] = system: wild mustard; experiment: Test D postemergence; type: in vivo, Sinapis arvensis; settings: Brassica, post-emergence, scale 0 to 100 (0 no effect, 100 complete control), read-out: Plant response rating, Mustard, Wild
# Procedure, shortened: as §1
# [6] = system: kochia; experiment: Test D postemergence; type: in vivo, Kochia scoparia; settings: Bassia scoparia, post-emergence, scale 0 to 100 (0 no effect, 100 complete control), read-out: Plant response rating, Kochia
# Procedure, shortened: as §1
# [7] = system: soybean; experiment: Test E postemergence; type: in vivo, Glycine max; settings: Glycine max, post-emergence
# Procedure, shortened: (§2)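 Test chemicals formulated in a non-phytotoxic solvent mixture containing a surfactant were applied preemergence to seeds in silt loam soil or postemergence to plants at the 1- to 4-leaf stage in potting mix. After 14 to 21 days in a greenhouse, injury was visually rated against controls on a 0-100 scale (0 = no effect, 100 = complete control).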
# [8] = system: blackgrass; experiment: Test D preemergence; type: in vivo, Alopecurus myosuroides; settings: Alopecurus myosuroides, pre-emergence, scale 0-100, read-out: Plant response rating, Blackgrass
# Procedure, shortened: as §1
# [9] = system: green foxtail; experiment: Test D preemergence; type: in vivo, Setaria viridis; settings: Setaria viridis, pre-emergence, scale 0-100, read-out: Plant response rating, Foxtail, Green
# Procedure, shortened: as §1
# [10] = system: wild buckwheat; experiment: Test D postemergence; type: in vivo, Polygonum convolvulus; settings: Fallopia convolvulus, post-emergence, Postemergence, scale 0 to 100 (0 no effect, 100 complete control), read-out: Plant response rating, Buckwheat, Wild
# Procedure, shortened: as §1
# [11] = system: cocklebur; experiment: Test E preemergence; type: in vivo, Xanthium strumarium; settings: for Plant response rating, Cocklebur: scale 0 to 100, 0 no effect, 100 complete control
# Procedure, shortened: as §2
# [12] = system: bromegrass, downy; experiment: Test D postemergence; type: in vivo, Bromus tectorum; settings: Bromus tectorum, post-emergence, Postemergence, scale 0 to 100 (0 no effect, 100 complete control), read-out: Plant response rating, Bromegrass, Downy
# Procedure, shortened: as §1
# [13] = system: windgrass; experiment: Test D postemergence; type: in vivo, Apera spica-venti; settings: Apera spica-venti, post-emergence, scale 0 to 100 (0 no effect, 100 complete control), read-out: Plant response rating, Windgrass
# Procedure, shortened: as §1
smiles,measurement,setting,value
"N#Cc1cccc(Oc2ncc(Cl)cn2)c1-n1cc(C(F)(F)F)cn1 [Compound 58, 3-[(5-chloro-2-pyrimidinyl)oxy]-2-[4-(trifluoromethyl)-1H-pyrazol-1-yl]benzonitrile]",pest or weed control at 31 g/ha,[1]; 31 g ai/ha,75%
same,pest or weed control at 62 g/ha,[1]; 62 g ai/ha,90%
same,pest or weed control at 125 g/ha,[1]; 125 g ai/ha,95%
same,pest or weed control at 250 g/ha,[1]; 250 g ai/ha,90%
same,pest or weed control at 31 g/ha,[2]; 31 g ai/ha,35%
same,pest or weed control at 62 g/ha,[2]; 62 g ai/ha,40%
same,pest or weed control at 125 g/ha,[2]; 125 g ai/ha,50%
same,pest or weed control at 250 g/ha,[2]; 250 g ai/ha,70%
same,pest or weed control at 31 g/ha,[3]; 31 g ai/ha,100%
same,pest or weed control at 62 g/ha,[3]; 62 g ai/ha,100%
same,pest or weed control at 125 g/ha,[3]; 125 g ai/ha,100%
same,pest or weed control at 250 g/ha,[3]; 250 g ai/ha,100%
same,pest or weed control at 31 g/ha,[4]; 31 g ai/ha,70%
same,pest or weed control at 62 g/ha,[4]; 62 g ai/ha,100%
same,pest or weed control at 125 g/ha,[4]; 125 g ai/ha,100%
same,pest or weed control at 250 g/ha,[4]; 250 g ai/ha,100%
same,pest or weed control at 31 g/ha,[5]; 31 g ai/ha,85%
same,pest or weed control at 62 g/ha,[5]; 62 g ai/ha,100%
same,pest or weed control at 125 g/ha,[5]; 125 g ai/ha,100%
same,pest or weed control at 250 g/ha,[5]; 250 g ai/ha,100%
same,pest or weed control at 31 g/ha,[6]; 31 g ai/ha,95%
same,pest or weed control at 62 g/ha,[6]; 62 g ai/ha,95%
same,pest or weed control at 125 g/ha,[6]; 125 g ai/ha,95%
same,pest or weed control at 250 g/ha,[6]; 250 g ai/ha,95%
same,"plant response (crop injury) rating, soybean, 0-100 scale at 31 g/ha","[7]; Postemergence, 31 g ai/ha, scale 0 to 100",95%
same,"plant response (crop injury) rating, soybean, 0-100 scale at 62 g/ha","[7]; Postemergence, 62 g ai/ha, scale 0 to 100",95%
same,"plant response (crop injury) rating, soybean, 0-100 scale at 125 g/ha","[7]; Postemergence, 125 g ai/ha, scale 0 to 100",95%
same,"plant response (crop injury) rating, soybean, 0-100 scale at 250 g/ha","[7]; Postemergence, 250 g ai/ha, scale 0 to 100",100%
same,"plant response (crop injury) rating, soybean, 0-100 scale at 16 g/ha","[7]; postemergence, 16 g ai/ha, scale 0 to 100, 0 no effect, 100 complete control",75%
same,pest or weed control at 31 g/ha,[8]; 31 g ai/ha,20%
same,pest or weed control at 62 g/ha,[8]; 62 g ai/ha,55%
same,pest or weed control at 125 g/ha,[8]; 125 g ai/ha,100%
same,pest or weed control at 250 g/ha,[8]; 250 g ai/ha,100%
same,pest or weed control at 31 g/ha,[9]; 31 g ai/ha,100%
same,pest or weed control at 62 g/ha,[9]; 62 g ai/ha,100%
same,pest or weed control at 125 g/ha,[9]; 125 g ai/ha,100%
same,pest or weed control at 250 g/ha,[9]; 250 g ai/ha,100%
same,pest or weed control at 31 g/ha,[10]; 31 g ai/ha,90%
same,pest or weed control at 62 g/ha,[10]; 62 g ai/ha,100%
same,pest or weed control at 125 g/ha,[10]; 125 g ai/ha,100%
same,pest or weed control at 250 g/ha,[10]; 250 g ai/ha,100%
same,Cocklebur plant response rating,"[11]; 31 g ai/ha, scale 0 to 100 (0 no effect, 100 complete control)",0
same,"Plant response rating, Cocklebur",[11]; 125 g ai/ha,0
same,"Plant response rating, Cocklebur",[11]; 250 g ai/ha,50
same,pest or weed control at 31 g/ha,[12]; 31 g ai/ha,25%
same,pest or weed control at 62 g/ha,[12]; 62 g ai/ha,30%
same,pest or weed control at 125 g/ha,[12]; 125 g ai/ha,35%
same,pest or weed control at 250 g/ha,[12]; 250 g ai/ha,35%
same,pest or weed control at 31 g/ha,[13]; 31 g ai/ha,20%
same,pest or weed control at 62 g/ha,[13]; 62 g ai/ha,35%
same,pest or weed control at 125 g/ha,[13]; 125 g ai/ha,55%
same,pest or weed control at 250 g/ha,[13]; 250 g ai/ha,90%
